melting point [°C] | Structure (SMILES)
136 | C=CC(O)C(NC(=O)c1cn(C)nc1C(F)(F)F)C(=O)NC (racemic) [Compound 3.4, N-(2-Hydroxy-1-methylcarbamoylbut-3-enyl)-1-methyl-3-trifluoromethyl-1H-pyrazole-4-carboxamide]
160 | C=CC(OC(C)=O)C(NC(=O)c1cn(C)nc1C(F)(F)F)C(=O)NC (racemic) [Compound 3.10, 1-{Methylcarbamoyl-[(1-methyl-3-trifluoromethyl-1H-pyrazol-4-carbonyl)amino]methyl}-allyl acetate]

Reference: patent US20080200338A1, “Heteroaroyl-Substituted Serineamides” (BASF Aktiengesellschaft, priority 2005, published 2008)
